Source: PubChem BioAssay (NCI)
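Growth conditions: 96-well plates. Treatment: test compound, 48 hours, 5 concentrations. Analysis: linear interpolation between bracketing concentrations; unreached endpoints set to highest concentration. Definition used: TGI = concentration required for complete inhibition of growth.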

Legend:
Assay in all cases: inhibition of tumour cell growth, NCI panel, 48 h
[1] = test system: RXF 393 renal
[2] = test system: M19-MEL melanoma
[3] = test system: HOP-18 NSCLC
[4] = test system: HT29 colon
[5] = test system: M14 melanoma
[6] = test system: DMS 114 small cell lung
[7] = test system: NCI-H23 lung
[8] = test system: EKVX NSCLC
[9] = test system: COLO 205 colon
[10] = test system: HL-60(TB) leukemia
[11] = test system: OVCAR-5 ovarian
[12] = test system: ACHN renal
[13] = test system: NCI-H226 lung
[14] = test system: SF-539 CNS
[15] = test system: IGROV1 ovarian
[16] = test system: SNB-78 CNS
[17] = test system: SF-295 CNS
[18] = test system: U251 CNS
[19] = test system: HCT-15 colon
[20] = test system: TK-10 renal
[21] = test system: CCRF-CEM leukemia
[22] = test system: SK-OV-3 ovarian
[23] = test system: NCI-H460 lung
[24] = test system: HOP-62 NSCLC
[25] = test system: UACC-257 melanoma
[26] = test system: SN12C renal
[27] = test system: OVCAR-3 ovarian
[28] = test system: CAKI-1 renal
[29] = test system: OVCAR-4 ovarian
[30] = test system: SK-MEL-2 melanoma
[31] = test system: OVCAR-8 ovarian
[32] = test system: MALME-3M melanoma
[33] = test system: UO-31 renal
[34] = test system: LXFL 529 NSCLC
[35] = test system: SF-268 CNS
[36] = test system: SR leukemia
[37] = test system: SNB-19 CNS
[38] = test system: RXF-631 renal
[39] = test system: UACC-62 melanoma
[40] = test system: K-562 leukemia
[41] = test system: KM12 colon
[42] = test system: MOLT-4 leukemia
[43] = test system: 786-0 renal
[44] = test system: RPMI-8226 leukemia
[45] = test system: SW-620 colon
[46] = test system: DLD-1 colon
[47] = test system: HCT-116 colon
[48] = test system: XF 498 CNS
[49] = test system: LOX IMVI melanoma
[50] = test system: KM20L2 colon
[51] = test system: SK-MEL-28 melanoma
[52] = test system: A549 NSCLC
[53] = test system: HCC-2998 colon

Work on `COc1ccc(/C=C/C(=O)c2sc(NC(=S)NC(=O)c3ccc(Cl)cc3)nc2C)cc1OC` yielded a TGI [1] of over 100 µM, a TGI [2] of over 100 µM and a TGI [3] of over 100 µM. It also gave a TGI [4] of over 100 µM, a TGI [5] of over 100 µM and a TGI [6] of over 100 µM. For the same compound, the TGI [7] was over 100 µM, the TGI [8] was over 100 µM and the TGI [9] was over 100 µM. The TGI [10] was over 100 µM, the TGI [11] was over 100 µM and the TGI [12] was over 100 µM. The TGI [13] was over 100 µM, the TGI [14] was over 100 µM and the TGI [15] was over 100 µM. It also gave a TGI [16] of over 100 µM, a TGI [17] of over 100 µM and a TGI [18] of over 100 µM. For the same compound, the TGI [19] was over 100 µM, the TGI [20] was over 100 µM and the TGI [21] was 88.1 µM. For the same compound, the TGI [22] was over 100 µM, the TGI [23] was over 100 µM and the TGI [24] was over 100 µM. The TGI [25] was over 100 µM, the TGI [26] was over 100 µM and the TGI [27] was over 100 µM. It also gave a TGI [28] of over 100 µM, a TGI [29] of over 100 µM and a TGI [30] of over 100 µM. The TGI [31] was over 100 µM, the TGI [32] was over 100 µM and the TGI [33] was over 100 µM. It also gave a TGI [34] of over 100 µM, a TGI [35] of over 100 µM and a TGI [36] of over 100 µM. The TGI [37] was over 100 µM, the TGI [38] was over 100 µM and the TGI [39] was 39.5 µM. The TGI [40] was 96.8 µM, the TGI [41] was over 100 µM and the TGI [42] was over 100 µM. The TGI [43] was over 100 µM, the TGI [44] was 62 µM and the TGI [45] was over 100 µM. For the same compound, the TGI [46] was over 100 µM, the TGI [47] was over 100 µM and the TGI [48] was over 100 µM. For the same compound, the TGI [49] was over 100 µM, the TGI [50] was over 100 µM and the TGI [51] was over 100 µM. For the same compound, the TGI [52] was over 100 µM and the TGI [53] was over 100 µM.
